Data published in US12692253B2, “Antimicrobial compounds and methods” (Curza Global, LLC, priority 2019, dated 2026).

What was measured:
[1] = biological target: Rabbit Reticulocyte Lysate (eukaryotic protein synthesis); test: Rabbit reticulocyte lysate luciferase assay (inhibition of eukaryotic protein synthesis); format: biochemical; settings: class by IC50 or % inhibition @ 1 μM, read-out: Rabbit reticulocyte IC50 (μM/% inhib.)
Experimental: Inhibition of eukaryotic protein synthesis was determined using the Rabbit Reticulocyte Lysate System, Nuclease-Treated from Promega (catalog #L-4960) with slight modifications to the manufacturer's protocol. Compounds were serial diluted in 0.5 mL microcentrifuge tubes by mixing and transferring 50 μL from the highest concentration to 50 μL of water, mixing and transferring 50 μL of this 2-fold dilution to 50 μL of water. This mixing and transferring was repeated so that there are a total of 8 tubes with serial dilutions of compound at 10× the desired screening concentration that are ultimately diluted to 1× by the addition of rabbit reticulocyte luciferase synthesis mixture. Serial dilutions of compounds were added (2.5 μL) to wells in a black round bottom 96-well plate. Water (2.5 μL) was used as a “no inhibitor” control in 4 wells/plate. No RNA control reaction mixture (2 μL; see below) was used as a control in 4 wells/plate for background luminescence. Rabbit reticulocyte luciferase synthesis mixture (22.5 μL; see below) was added to wells with compounds or water mixture and incubated at 30° C. for 90 minutes. Luciferase assay reagent (25 μL) was added with luminescence measured using a BioTek Synergy HTX plate reader. % Inhibition was determined relative to no inhibitor controls.
Rabbit Reticulocyte Luciferase Synthesis Mixture:
• 1,000 μL rabbit reticulocyte lysate • 5.7 μL Luciferase Control RNA (1 μg/μL) • 26 μL complete amino acid mixture • 395 μL water • No RNA Control • 70 μL rabbit reticulocyte lysate • 2 μL complete amino acid mixture • 28 μL water Minimum Inhibitory Concentration (MIC)

[2] = tested on: E. coli S30 extract (bacterial protein synthesis); test: E. coli S30 extract coupled transcription-translation luciferase assay (inhibition of bacterial protein synthesis); format: biochemical; settings: class by IC50 or % inhibition @ 1 μM, read-out: S30 IC50 (μM/% inhib.)
Experimental: E. coli S30 extract: Inhibition of bacterial protein synthesis was determined using the E. coli S30 Extract System for Circular DNA (Promega catalog #L-2010) and Luciferase Assay Reagent (Promega catalog #E1500) with slight modifications to a published protocol. Fyfe, C., Sutcliffe, J. A. and Grossman, T. H. (2012) “Development and characterization of a Pseudomonas aeruginosa in vitro coupled transcription-translation assay system for evaluation of translation inhibitors” J. Microbiol. Methods 90(3), 256-261.
Compounds were serial diluted in 0.5 mL microcentrifuge tubes by mixing and transferring 50 μL from the highest concentration to 50 μL of water, mixing and transferring 50 μL of this 2-fold dilution to 50 μL of water. This mixing and transferring was repeated so that there are a total of 8 tubes with serial dilutions of compound at 10× the desired screening concentration that are ultimately diluted to 1× by the addition of S30 luciferase synthesis mixture. Serial dilutions of compounds were added (2 μL) to wells in a black round bottom 96-well plate. Water (2 μL) was used as a “no inhibitor” control in 4 wells/plate. No DNA control reaction mixture (20 μL; see below) was used as a control in 4 wells/plate for background luminescence. S30 luciferase synthesis mixture (18 μL; see below) was added to wells with compounds or water mixture and incubated at 37° C. for 1 hour. Reactions were stopped by transferring to 4° C. refrigerator for 5 minutes then 25 μL of luciferase activity mix was added. Luminescence was measured using a BioTek Synergy HTX plate reader. % Inhibition was determined relative to no inhibitor controls. • S30 luciferase synthesis mixture: • 445 μL S30 extract, circular • 712 μL S30 Premix without amino acids • 4.45 μL pBESTluc™ DNA (1 μg/μL) • 78 μL complete amino acid mixture • 267 μL water • No DNA control: • 20 μL S30 extract, circular • 32 μL S30 Premix without amino acids • 7 μL complete amino acid mixture • 21 μL water Rabbit Reticulocyte lysate

E. coli (Ec) = test: Broth microdilution minimum inhibitory concentration (MIC), CLSI; format: cell-based; settings: Escherichia coli, growth medium supplemented with sodium bicarbonate, read-out: E. coli + bicarb MIC
Experimental: A certified BSL-2 laboratory was used for testing. Compounds were evaluated using the broth microdilution minimum inhibitory concentration (MIC) and minimum bactericidal concentration (MBC) assays defined by Clinical and Laboratory Standards Institute (CLSI) in the M26-A guideline against S. aureus (Sa), E. coli (Ec), K. pneumoniae (Kp), A. baumannn (Ab), E. faecalis (Ef) and P. aeruginosa (Pa).
MICs were determined using the Clinical Laboratory and Standards Institute (CLSI) Broth Microdilution Method with slight modification. Clinical and Laboratory Standards Institute (2012). “Methods for dilution antimicrobial susceptibility tests for bacteria that grow aerobically; approved standard, 9th ed. M07-A9 Clinical and Laboratory Standards Institute, Wayne, PA” Serial two-fold dilutions of compounds are prepared in sterile clear round-bottom 96-well plates.
To prepare microdilution trays, two-fold dilutions of antimicrobial agent are prepared in growth medium: Cation-Adjusted Mueller-Hinton Broth (CAMHB), or CAMHB supplemented with sodium bicarbonate (6.25 or 25 mM final concentration prepared from a 1.0M stock solution) or CAMHB supplemented with heat inactivated human serum (Fisher Cat. #BP2657100) 0-50% by adding 200 µL of the highest concentration to be tested (64 μg/mL, for example) in row A, mixing and transferring 100 μL from row A to 100 μL growth medium in row B, then repeating the mixing and transferring through row H of the 96-well plate, discarding the excess […] remaining. This slight modification to the CLSI protocol enables evaluation of MICs for 3 compounds per plate in triplicate, albeit with only 8 compound dilutions (CLSI protocol enables 2 compounds in triplicate with 10 dilutions). Bacterial suspensions are added to a final concentration of 5×10^4 CFU/well by adding 5 μL of a 1:10 dilution of a 0.5 McFarland suspension (1×10^8 CFU/mL) for each bacterium evaluated. Bacterial suspensions were prepared using the growth method described by CLSI. Well-isolated colonies (3-5 from an agar plate) were selected using a sterile loop and used to inoculate a tube containing 4 mL of CAMHB. The cultures are incubated at 35±2° C. until it achieves or exceeds the turbidity of the 0.5 McFarland standard, determined by measuring A600 (usually two to six hours). When growth exceeds a 0.5 McFarland standard, the turbidity is adjusted with broth to be equivalent to a 0.5 McFarland standard.

Row | SMILES | IC50 [1] [µM] | IC50 [2] [µM] | MIC (E. coli (Ec)) [µg/mL]
1 | Cc1cc(-n2ccc(NC(=O)N3CCN(C(=O)[C@@](C)(N)CO)CC3)nc2=O)ccc1CN1C[C@@H]2[C@@H](N)[C@@H]2C1 [Compound 1] | ≥ 1 | < 0.5 | 
2 | CC(C)(N)C(=O)N1CCN(C(=O)Nc2ccn(-c3cc(CN4C[C@@H]5[C@@H](N)[C@@H]5C4)cc(C(F)(F)F)c3)c(=O)n2)CC1 [Compound 5] | ≥ 1 | ≥ 1 | 
3 | CC(C)(N)C(=O)N1CCN(C(=O)Nc2ccn(-c3ccc(CN4C[C@@H]5[C@@H](N)[C@@H]5C4)c(C(F)(F)F)c3)c(=O)n2)CC1 [Compound 6] | ≥ 1 | ≥ 1 | 
4 | CC(C)(N)C(=O)N1CCN(C(=O)Nc2ccn(-c3cc(F)c(CN4C[C@@H]5[C@@H](N)[C@@H]5C4)c(F)c3)c(=O)n2)CC1 [Compound 8] |  | ≥ 1 | > 32
5 | CC(C)(N)CC(=O)N1CCN(C(=O)Nc2ccn(-c3ccc(CN4C[C@@H]5[C@@H](N)[C@@H]5C4)c(C(F)(F)F)c3)c(=O)n2)CC1 [Compound 9] |  | ≥ 1 | > 32
6 | CCOC(=O)C(c1ccc(-n2ccc(NC(=O)N3CCN(C(=O)C(C)(C)N)CC3)nc2=O)cc1)N1C[C@@H]2[C@@H](N)[C@@H]2C1 (some centres unmarked) [Compound 10] | ≥ 1 | ≥ 1 | 
7 | C[C@](N)(CO)C(=O)N1CCN(C(=O)Nc2ccn(-c3ccc(CN4C[C@@H]5[C@@H](N)[C@@H]5C4)c(C(F)(F)F)c3)c(=O)n2)CC1 [Compound 11] | ≥ 1 | ≥ 1 | 
8 | CC(N)(C(=O)N1CCN(C(=O)Nc2ccn(-c3ccc(CN4C[C@@H]5[C@@H](N)[C@@H]5C4)cc3)c(=O)n2)CC1)C(F)(F)F (some centres unmarked) [Compound 15] |  | ≥ 1 | > 32
9 | CC(C)(N)C(=O)N1CCN(C(=O)Nc2ccn(-c3ccc(CN4CCC5(CC5N)C4)cc3)c(=O)n2)CC1 (centres unmarked) [Compound 22] | ≥ 1 | < 0.5 | 
10 | CC(C)(N)C(=O)N1CCCN(C(=O)Nc2ccn(-c3ccc(CN4C[C@@H]5[C@@H](N)[C@@H]5C4)cc3)c(=O)n2)CC1 [Compound 26] |  | ≥ 1 | < 8
11 | NC[C@H](N)C(=O)N1CCN(C(=O)Nc2ccn(-c3ccc(CN4C[C@@H]5[C@@H](N)[C@@H]5C4)cc3)c(=O)n2)CC1 [Compound 43] | ≥ 1 | ≥ 1 | 
12 | C[C@](N)(CN)C(=O)N1CCN(C(=O)Nc2ccn(-c3ccc(CN4C[C@@H]5[C@@H](N)[C@@H]5C4)cc3)c(=O)n2)CC1 [Compound 44] | ≥ 1 | ≥ 1 | 
13 | CC(C)(N)C(=O)N1CCN(C(=O)Nc2ccn(-c3ccc(CN4CCC5(CCC(N)CC5)CC4)cc3)c(=O)n2)CC1 [Compound 55] | ≥ 1 | < 0.5 | 
14 | CC(C)(N)C(=O)N1CCN(C(=O)Nc2ccn(-c3ccc(CN4C[C@@H]5[C@@H](N)[C@@H]5C4)nc3)c(=O)n2)CC1 [Compound 57] | ≥ 1 | ≥ 1 | 
15 | NC[C@@H]1[C@H]2CN(Cc3ccc(-n4ccc(NC(=O)N5CCN(C(=O)C6(CN)CC6)CC5)nc4=O)cc3)C[C@@H]12 [Compound 70] |  | ≥ 1 | < 8
16 | CC(C)(N)C(=O)N1CCN(C(=O)Nc2ccn(-c3ccc(CN4CCN5CCNCC5C4)cc3)c(=O)n2)CC1 (centres unmarked) [Compound 78] | ≥ 1 | ≥ 1 | 
17 | CC(C)(N)C(=O)N1CCN(C(=O)Nc2ccn(-c3ccc(CN4C[C@@H]5CN[C@@H]5C4)cc3)c(=O)n2)CC1 [Compound 79] | ≥ 1 | ≥ 1 | 
18 | CC(C)(N)C(=O)N1CCN(C(=O)Nc2ccn(-c3ccc(CCN4C[C@@H]5[C@@H](N)[C@@H]5C4)cc3)c(=O)n2)CC1 [Compound 84] |  | ≥ 1 | > 32
19 | CC(C)(N)C(=O)N1CCN(C(=O)Nc2ccn(-c3cccc(CCN4C[C@@H]5[C@@H](N)[C@@H]5C4)c3)c(=O)n2)CC1 [Compound 86] | ≥ 1 | ≥ 1 | 
20 | N[C@@H]1[C@H]2CN(CCc3cccc(-n4ccc(NC(=O)N5CCNCC5)nc4=O)c3)C[C@@H]12 [Compound 87] | ≥ 1 | ≥ 1 | 
21 | N[C@@H]1[C@H]2CN(CCc3cccc(-n4ccc(NC(=O)N5CCN(C(=O)C6(N)CCC6)CC5)nc4=O)c3)C[C@@H]12 [Compound 88] | ≥ 1 | ≥ 1 | 
22 | CC(C)(N)C(=O)N1CCN(C(=O)Nc2ccn(-c3ccc(CCN4C[C@@H]5[C@H](N)[C@@H]5C4)cc3)c(=O)n2)CC1 [Compound 90] | ≥ 1 | ≥ 1 | 
23 | CC(C)(N)C(=O)N1CCN(C(=O)Nc2ccn(-c3ccc(CCN4CC5(CC(N)C5)C4)cc3)c(=O)n2)CC1 [Compound 92] | ≥ 1 | < 0.5 | 
24 | CC(CN1C[C@@H]2[C@@H](N)[C@@H]2C1)c1ccc(-n2ccc(NC(=O)N3CCN(C(=O)C(C)(C)N)CC3)nc2=O)cc1 (some centres unmarked) [Compound 97] | ≥ 1 | ≥ 1 | 
25 | CC(Cc1ccc(-n2ccc(NC(=O)N3CCN(C(=O)C(C)(C)N)CC3)nc2=O)cc1)N1C[C@@H]2[C@@H](N)[C@@H]2C1 (some centres unmarked) [Compound 98] | ≥ 1 | ≥ 1 | 
26 | COc1cc(-n2ccc(NC(=O)N3CCN(C(=O)C(C)(C)N)CC3)nc2=O)ccc1CCN1C[C@@H]2[C@H](N)[C@@H]2C1 [Compound 104] | ≥ 1 | ≥ 1 | 
27 | CC(C)(N)C(=O)N1CCN(C(=O)Nc2ccn(-c3ccc(C(C)(C)CN4C[C@@H]5[C@@H](CN)[C@@H]5C4)cc3)c(=O)n2)CC1 [Compound 118] | ≥ 1 | ≥ 1 | 
28 | CC(C)(N)C(=O)N1CCN(C(=O)Nc2ccn(-c3ccc(C(C)(C)CN4CC5CC5(CN)C4)cc3)c(=O)n2)CC1 (centres unmarked) [Compound 119] | ≥ 1 | ≥ 1 | 
29 | CC(C)(N)C(=O)N1CCN(C(=O)Nc2ccn(-c3cccc(CCN4C[C@H]5CNC[C@H]5C4)c3)c(=O)n2)CC1 [Compound 158] |  | ≥ 1 | 
30 | CC(C)(N)C(=O)N1CCN(C(=O)Nc2ccn(-c3ccc(CCN4C[C@H]5CNC[C@H]5C4)cc3)c(=O)n2)CC1 [Compound 159] | ≥ 1 | ≥ 1 | 
